Reference: US9833497B2, “Human originated EGF domain proteins and use of the same” (CHENGDU SOURCEBIO LIMITED-LIABILITY COMPANY, priority 2013, dated 2017)

How the values were obtained:
Format in all cases: cell-based
E. coli DH5α = test: Antibacterial activity: MIC and growth curve against E. coli DH5α in 96-well plate; settings: minimal inhibitory concentration against E. coli DH5α; 96-well plate, 5×10^5 CFU/mL, 37° C., judged after 8 h
Method in brief: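 MIC taken as lowest protein level with no bacterial growth, tracked by A600 every 30 min during 37 °C, 175 rpm culture. Two-fold protein series 50-12.5 μg/mL final, triplicate wells, against 5×10^5 CFU/mL of LB-washed mid-log cells.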

E. coli BL21 = test: MIC against Gram-negative bacteria: E. coli BL21; settings: 5×10^5 CFU/mL; for MIC E. coli BL21: two-fold serial dilution
Method in brief: (§1)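 Inocula prepared by growing LB cultures at 37° C to 0.5 McFarland, centrifuging at 4000×g, and resuspending in fresh medium. Final density 5×10^5 CFU/mL per well with two-fold dilutions of purified EGF domain protein; shaking incubation at 37° C.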

Pseudomonas aeruginosa = test: MIC against Gram-negative bacteria: Pseudomonas aeruginosa; settings: 5×10^5 CFU/mL; for MIC P. aeruginosa: two-fold serial dilution
Method in brief: as §1

Klebsiella pneumonia = test: MIC against Gram-negative bacteria: Klebsiella pneumonia; settings: 5×10^5 CFU/mL; for MIC K. pneumonia: two-fold serial dilution
Method in brief: as §1

Enterobacter cloacae = test: MIC against Gram-negative bacteria: Enterobacter cloacae; settings: 5×10^5 CFU/mL; for MIC E. cloacae: two-fold serial dilution
Method in brief: as §1

Aeromonas hydrophila = test: MIC against Gram-negative bacteria: Aeromonas hydrophila; settings: 5×10^5 CFU/mL; for MIC A. hydrophila: two-fold serial dilution
Method in brief: as §1

Citrobacter diversus = test: MIC against Gram-negative bacteria: Citrobacter diversus; settings: 5×10^5 CFU/mL; for MIC C. diversus: two-fold serial dilution
Method in brief: as §1

Moraxella catarrhalis = test: MIC against Gram-negative bacteria: Moraxella catarrhalis; settings: 5×10^5 CFU/mL; for MIC M. catarrhalis: two-fold serial dilution
Method in brief: as §1

Proteus mirabilis = test: MIC against Gram-negative bacteria: Proteus mirabilis; settings: 5×10^5 CFU/mL; for MIC P. mirabilis: two-fold serial dilution
Method in brief: as §1

Proteus vulgaris = test: MIC against Gram-negative bacteria: Proteus vulgaris; settings: 5×10^5 CFU/mL; for MIC P. vulgaris: two-fold serial dilution
Method in brief: as §1

Serratia marcescens = test: MIC against Gram-negative bacteria: Serratia marcescens; settings: 5×10^5 CFU/mL; for MIC S. marcescens: two-fold serial dilution
Method in brief: as §1

[1] = E. coli BL21, 10 h cultivation at 37° C.
[2] = P. aeruginosa, 10 h cultivation at 37° C.
[3] = K. pneumonia, 10 h cultivation at 37° C.
[4] = E. cloacae, 10 h cultivation at 37° C.
[5] = A. hydrophila, 10 h cultivation at 37° C.
[6] = C. diversus, 10 h cultivation at 37° C.
[7] = M. catarrhalis, 10 h cultivation at 37° C.
[8] = P. mirabilis, 10 h cultivation at 37° C.
[9] = P. vulgaris, 10 h cultivation at 37° C.
[10] = S. marcescens, 10 h cultivation at 37° C.

## PRT118 (DVDECVGPGGPLCDSLCFNTQGSFHCGCLPGWVLAPNGVSCT; listed as Homo sapiens)
E. coli DH5α
  MIC: 12.5 µg/mL
E. coli BL21; E. coli BL21, 96-well plate, 37° C., 10 h
  MIC (μg/mL) E. coli BL21: 12.5 µg/mL
Pseudomonas aeruginosa; Pseudomonas aeruginosa, 96-well plate, 37° C., 10 h
  MIC (μg/mL) P. aeruginosa: 12.5 µg/mL
Klebsiella pneumonia; Klebsiella pneumonia, 96-well plate, 37° C., 10 h
  MIC (μg/mL) K. pneumonia: 12.5 µg/mL
Enterobacter cloacae; Enterobacter cloacae, 96-well plate, 37° C., 10 h
  MIC (μg/mL) E. cloacae: 12.5 µg/mL
Aeromonas hydrophila; Aeromonas hydrophila, 96-well plate, 37° C., 10 h
  MIC (μg/mL) A. hydrophila: 12.5 µg/mL
Citrobacter diversus; Citrobacter diversus, 96-well plate, 37° C., 10 h
  MIC (μg/mL) C. diversus: 12.5 µg/mL
Moraxella catarrhalis; Moraxella catarrhalis, 96-well plate, 37° C., 10 h
  MIC (μg/mL) M. catarrhalis: 25 µg/mL
Proteus mirabilis; Proteus mirabilis, 96-well plate, 37° C., 10 h
  MIC (μg/mL) P. mirabilis: 12.5 µg/mL
Proteus vulgaris; Proteus vulgaris, 96-well plate, 37° C., 10 h
  MIC (μg/mL) P. vulgaris: 25 µg/mL
Serratia marcescens; Serratia marcescens, 96-well plate, 37° C., 10 h
  MIC (μg/mL) S. marcescens: 12.5 µg/mL

## PRT413 (DVNECITGSHSCRLGESCINTVGSFRCQRDSSCGTGYELTEDNSCK; listed as Homo sapiens)
E. coli DH5α
  MIC: 12.5 µg/mL
E. coli BL21; [1]
  MIC: 12.5 µg/mL
Pseudomonas aeruginosa; [2]
  MIC: 12.5 µg/mL
Klebsiella pneumonia; [3]
  MIC: 50 µg/mL
Enterobacter cloacae; [4]
  MIC: 12.5 µg/mL
Aeromonas hydrophila; [5]
  MIC: 50 µg/mL
Citrobacter diversus; [6]
  MIC: 12.5 µg/mL
Moraxella catarrhalis; [7]
  MIC: 50 µg/mL
Proteus mirabilis; [8]
  MIC: 12.5 µg/mL
Proteus vulgaris; [9]
  MIC: 12.5 µg/mL
Serratia marcescens; [10]
  MIC: 12.5 µg/mL

## PRT778 (QNQSCPVNYCYNQGHCYISQTLGCQPMCTCPPAFTDSRCF; listed as Homo sapiens)
E. coli DH5α
  MIC: 50 µg/mL
E. coli BL21; [1]
  MIC (μg/mL) E. coli BL21: 12.5 µg/mL
Pseudomonas aeruginosa; [2]
  MIC (μg/mL) P. aeruginosa: 50 µg/mL
Klebsiella pneumonia; [3]
  MIC (μg/mL) K. pneumonia: 12.5 µg/mL
Enterobacter cloacae; [4]
  MIC (μg/mL) E. cloacae: 50 µg/mL
Aeromonas hydrophila; [5]
  MIC (μg/mL) A. hydrophila: 12.5 µg/mL
Citrobacter diversus; [6]
  MIC (μg/mL) C. diversus: 12.5 µg/mL
Moraxella catarrhalis; [7]
  MIC (μg/mL) M. catarrhalis: 12.5 µg/mL
Proteus mirabilis; [8]
  MIC (μg/mL) P. mirabilis: 12.5 µg/mL
Proteus vulgaris; [9]
  MIC (μg/mL) P. vulgaris: 25 µg/mL
Serratia marcescens; [10]
  MIC (μg/mL) S. marcescens: 12.5 µg/mL

## PRT169 (CIRYPGCLHGTCQQPWQCNCQEGWGGLFC; listed as Homo sapiens)
E. coli DH5α
  MIC: 50 µg/mL
E. coli BL21; [1]
  MIC (μg/mL) E. coli BL21: 12.5 µg/mL
Pseudomonas aeruginosa; [2]
  MIC (μg/mL) P. aeruginosa: 50 µg/mL
Klebsiella pneumonia; [3]
  MIC (μg/mL) K. pneumonia: 100 µg/mL
Enterobacter cloacae; [4]
  MIC (μg/mL) E. cloacae: 50 µg/mL
Aeromonas hydrophila; [5]
  MIC (μg/mL) A. hydrophila: 25 µg/mL
Citrobacter diversus; [6]
  MIC (μg/mL) C. diversus: 12.5 µg/mL
Moraxella catarrhalis; [7]
  MIC (μg/mL) M. catarrhalis: 25 µg/mL
Proteus mirabilis; [8]
  MIC (μg/mL) P. mirabilis: 50 µg/mL
Proteus vulgaris; [9]
  MIC (μg/mL) P. vulgaris: 25 µg/mL
Serratia marcescens; [10]
  MIC (μg/mL) S. marcescens: 12.5 µg/mL

## PRT1143 (NLDECLSEPCLHDGVCIDGINHYTCDCKSGFFGTHCE; listed as Homo sapiens)
E. coli DH5α
  MIC: 12.5 µg/mL
E. coli BL21; 10 h cultivation at 37° C.
  MIC E. coli BL21: 25 µg/mL
Pseudomonas aeruginosa; 10 h cultivation at 37° C.
  MIC P. aeruginosa: 50 µg/mL
Klebsiella pneumonia; 10 h cultivation at 37° C.
  MIC K. pneumonia: 25 µg/mL
Enterobacter cloacae; 10 h cultivation at 37° C.
  MIC E. cloacae: 12.5 µg/mL
Aeromonas hydrophila; 10 h cultivation at 37° C.
  MIC A. hydrophila: 50 µg/mL
Citrobacter diversus; 10 h cultivation at 37° C.
  MIC C. diversus: 12.5 µg/mL
Moraxella catarrhalis; 10 h cultivation at 37° C.
  MIC M. catarrhalis: 50 µg/mL
Proteus mirabilis; 10 h cultivation at 37° C.
  MIC P. mirabilis: 12.5 µg/mL
Proteus vulgaris; 10 h cultivation at 37° C.
  MIC P. vulgaris: 50 µg/mL
Serratia marcescens; 10 h cultivation at 37° C.
  MIC S. marcescens: 12.5 µg/mL

## PRT1086 (HFKPCRDKDLAYCLNDGECFVIETLTGSHKHCRCKEGYQGVRCD; listed as Homo sapiens)
E. coli DH5α
  MIC: 12.5 µg/mL
E. coli BL21; 10 h cultivation at 37° C.
  MIC E. coli BL21: 25 µg/mL
Pseudomonas aeruginosa; 10 h cultivation at 37° C.
  MIC P. aeruginosa: 50 µg/mL
Klebsiella pneumonia; 10 h cultivation at 37° C.
  MIC K. pneumonia: 25 µg/mL
Enterobacter cloacae; 10 h cultivation at 37° C.
  MIC E. cloacae: 12.5 µg/mL
Aeromonas hydrophila; 10 h cultivation at 37° C.
  MIC A. hydrophila: 25 µg/mL
Citrobacter diversus; 10 h cultivation at 37° C.
  MIC C. diversus: 50 µg/mL
Moraxella catarrhalis; 10 h cultivation at 37° C.
  MIC M. catarrhalis: 25 µg/mL
Proteus mirabilis; 10 h cultivation at 37° C.
  MIC P. mirabilis: 12.5 µg/mL
Proteus vulgaris; 10 h cultivation at 37° C.
  MIC P. vulgaris: 50 µg/mL
Serratia marcescens; 10 h cultivation at 37° C.
  MIC S. marcescens: 12.5 µg/mL
